# What was measured:
# Ctr1^+/+ MEFs = assay: MTT cell viability, Ctr1+/+ MEFs; type: cell-based, mouse
# Experimental: A modified 3-(4,5-dimethylthiazol-2-yl)-2,5-diphenyltetrazolium bromide (MTT) assay (Mosmann, [1983]) was used to test the chemosensitivity of cells to phenanthriplatin and, in some experiments, to cisplatin by determining the glycolysis rate via the reduction of the yellow tetrazolium salt MTT to a purple formazan dye, as previously described (Wehe et al., [2014]). Briefly, after growing for 24 h in the incubator, cells expressing or not hOCT2, hMATE1, hMATE2 or Ctr1 were treated for 10 min with platinum derivatives. Control cells were incubated with drug-free complete cell culture medium. Afterwards, the medium was carefully removed and replaced by 200 μL of fresh complete cell culture medium. After incubation for another 24 h, 10 μL of MTT solution containing 5 mg/mL of the dye were added to each well, and the cells were again incubated for 3 h. The medium was then removed and 100 μL of lysis buffer containing 10% (w/v) sodium dodecyl sulfate and 40% (v/v) dimethylformamide was added to each well. The plates were shaken for 10 min to destroy the cell structure and dissolve the blue formazan dye (Furchert et al., [2007]; Wehe et al., [2014]). Finally, the absorbance was measured at 590 nm using an automated microtiter plate reader (Infinite M200; Tecan, Männedorf, Switzerland). The percentage of viable cells in the untreated controls was compared to that for the various treatments. Experiments carried out with DAOY and UW228 cells followed a similar protocol except that these cells were incubated for 24 h with phenanthriplatin.
# mOCT2 = target: T1, mOCT2 (Mus musculus, UniProt O70577); assay: Inhibition of ASP+ uptake in HEK 293 cells expressing mOCT2; type: cell-based, murine; conditions: HEK 293 mOCT2, 1 μM ASP+
# T1 construct: expressed in transfected cells
# T1 sequence (O70577 1-553): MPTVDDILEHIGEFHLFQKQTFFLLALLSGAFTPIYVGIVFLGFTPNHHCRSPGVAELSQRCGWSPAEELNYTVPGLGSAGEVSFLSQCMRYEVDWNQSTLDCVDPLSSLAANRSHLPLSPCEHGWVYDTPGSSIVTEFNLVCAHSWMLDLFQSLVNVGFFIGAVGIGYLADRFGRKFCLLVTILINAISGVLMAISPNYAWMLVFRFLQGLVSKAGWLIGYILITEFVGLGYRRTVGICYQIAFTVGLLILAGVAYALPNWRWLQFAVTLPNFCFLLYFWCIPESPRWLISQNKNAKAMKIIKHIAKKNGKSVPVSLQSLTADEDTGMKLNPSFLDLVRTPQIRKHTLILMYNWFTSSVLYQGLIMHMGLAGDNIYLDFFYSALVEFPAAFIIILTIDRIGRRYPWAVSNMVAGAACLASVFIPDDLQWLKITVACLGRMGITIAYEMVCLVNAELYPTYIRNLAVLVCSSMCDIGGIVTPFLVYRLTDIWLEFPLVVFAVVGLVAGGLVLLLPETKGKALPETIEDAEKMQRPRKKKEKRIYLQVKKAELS
# Experimental: (§1) The interaction of phenanthriplatin with transporters for organic cations (OCT1-3, MATE1, and MATE2K) was investigated by measuring its effects on the uptake of the fluorescent organic cation 4-(4-dimethylamino)styryl-N-methylpyridinium (ASP^+). Microfluorometric measurements of ASP^+ uptake were performed with a fluorescence plate reader (Infinity 200, Tecan, Crailsheim, Germany; excitation at 465 nm, emission at 590 nm) as described previously for cultured HEK 293 cells (Wilde et al., [2009]). Before measurements, the culture medium in the wells of the 96 well microtiter plate containing HEK 293 cells was replaced by a HCO3- -free Ringer-like solution containing (in mM) NaCl 145, K2HPO4 1.6, KH2PO4 0.4, D-glucose 5, MgCl2 1, calcium gluconate 1.3, and pH adjusted to 7.4. Fluorescence was measured dynamically at 37°C in each well before and after ASP^+ addition to HCO3- -free Ringer-like solution, alone or together with increasing phenanthriplatin concentrations, and plotted versus time. ASP^+ (final concentration 1 or 10 μM for experiments with OCTs or MATEs, respectively) was added after the third sampling interval. Emission from the complete area of the well bottom was analyzed four times and averaged for each well. […] Background fluorescence was measured for each plate in wells with identical solutions containing no cells and subtracted from each well containing cells. […]
# hOCT3 = target: T2, hOCT3 (Homo sapiens, UniProt O75751); assay: Inhibition of ASP+ uptake in HEK 293 cells expressing hOCT3; type: cell-based; conditions: HEK 293 hOCT3, 1 μM ASP+
# T2 construct: expressed in transfected cells; gift of H. Koepsell
# T2 sequence (O75751 1-556): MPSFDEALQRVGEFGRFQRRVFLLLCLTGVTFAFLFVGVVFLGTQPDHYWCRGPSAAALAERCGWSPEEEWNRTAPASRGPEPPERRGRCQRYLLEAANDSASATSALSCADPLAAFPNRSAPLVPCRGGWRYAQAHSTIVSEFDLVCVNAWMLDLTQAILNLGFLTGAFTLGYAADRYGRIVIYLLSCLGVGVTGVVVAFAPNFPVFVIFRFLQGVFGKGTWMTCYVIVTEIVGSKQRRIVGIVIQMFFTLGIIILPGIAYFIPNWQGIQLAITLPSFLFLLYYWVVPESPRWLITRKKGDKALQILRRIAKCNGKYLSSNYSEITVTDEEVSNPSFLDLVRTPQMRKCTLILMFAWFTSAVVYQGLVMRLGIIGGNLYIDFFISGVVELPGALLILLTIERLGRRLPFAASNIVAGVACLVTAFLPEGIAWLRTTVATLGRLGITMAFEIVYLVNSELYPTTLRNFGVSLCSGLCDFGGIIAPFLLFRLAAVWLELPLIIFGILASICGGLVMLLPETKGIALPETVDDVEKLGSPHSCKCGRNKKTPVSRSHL
# Experimental: as §1
smiles,measurement,setting,value
"N.N.[Cl][Pt+].c1ccc2c(c1)cnc1ccccc12 [phenanthriplatin, cis-[Pt(NH3)2Cl(phenanthridine)]^+]",Cell viability (MTT),"Ctr1^+/+ MEFs; 1 mM, 10 min",toxic
same,Cell viability (MTT),Ctr1^+/+ MEFs; lower concentrations (<1 mM),did not change the cell viability
same,IC50,mOCT2,2 µM
same,logIC50 (logEC50) ± SEM for inhibition of ASP+ uptake,mOCT2,−5.64 ± 0.05
same,IC50,hOCT3,21 µM
same,logIC50 (logEC50) ± SEM for inhibition of ASP+ uptake,hOCT3,−4.67 ± 0.07

# Reference: PMC5982655, “Interaction of the New Monofunctional Anticancer Agent Phenanthriplatin With Transporters for Organic Cations” (Frontiers in Chemistry, 2018)
